Laboratory results reported in US20080269241A1, “BICYCLIC AMINOPROPYL TETRAHYDRO-PYRAZOLO-PYRIDINE MODULATORS OF CATHEPSIN S” (priority 2007, published 2008).

Target: T1, human cathepsin S (CatS) (Homo sapiens, UniProt P25774)
T1 construct: made in house; host or cells: baculovirus system (insect cells)
Assay: Recombinant human cathepsin S (CatS) fluorogenic substrate inhibition assay
Format: biochemical
Conditions: recombinant human CatS, 10 μM Z-Valine-Valine-Arginine-AMC, pH 5.0; average of results obtained; read-out: CatS IC50
Procedure: Recombinant human cathepsin S (CatS) was expressed in the baculovirus system and purified in one step with a thiopropyl-sepharose column. […] The assay is run in 150 mM sodium acetate pH 5.0 containing 1.5 mM DTT and 150 mM NaCl. […] Measurements are taken every min for 20 min. The rate is calculated from the slope of the increase in fluorescence and the percent inhibition is calculated from this.

T1 sequence (P25774 115-331): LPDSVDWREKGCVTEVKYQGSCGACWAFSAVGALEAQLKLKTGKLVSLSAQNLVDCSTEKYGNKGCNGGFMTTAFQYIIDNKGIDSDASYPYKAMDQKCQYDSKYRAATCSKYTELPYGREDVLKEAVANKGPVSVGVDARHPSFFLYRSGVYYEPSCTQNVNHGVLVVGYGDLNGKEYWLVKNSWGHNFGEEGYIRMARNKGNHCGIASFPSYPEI

Compound	IC50
CC(C)CC(=O)NCc1cc(-c2nn(CC(O)CN3CCC(C(=O)N4CCOCC4)CC3)c3c2CN(S(C)(=O)=O)CC3)ccc1C(F)(F)F (centres unmarked) [Example 260, N-[5-(1-{2-Hydroxy-3-[4-(morpholine-4-carbonyl)-piperidin-1-yl]-propyl}-5-methanesulfonyl-4,5,6,7-tetrahydro-1H-pyrazolo[4,3-c]pyridin-3-yl)-2-trifluoromethyl-benzyl]-3-methyl-butyramide]	120 nM
CC(C)CCNCc1cc(-c2nn(CC(O)CN3CCC(N4CCOCC4)CC3)c3c2CN(S(C)(=O)=O)CC3)ccc1C(F)(F)F (centres unmarked) [Example 282, 1-(5-Methanesulfonyl-3-{3-[(3-methyl-butylamino)-methyl]-4-trifluoromethyl-phenyl}-4,5,6,7-tetrahydro-pyrazolo[4,3-c]pyridin-1-yl)-3-(4-morpholin-4-yl-piperidin-1-yl)-propan-2-ol]	860 nM
CN(C)c1ccc2c(n1)n(C1CCN(CC(O)Cn3nc(-c4ccc(C(F)(F)F)c(CNC(=O)CO)c4)c4c3CCN(S(C)(=O)=O)C4)CC1)c(=O)n2C (centres unmarked) [Example 152, 2-Hydroxy-N-[5-(1-{3-[4-(5-Dimethylamino-1-methyl-2-oxo-1,2-dihydro-imidazo[4,5-b]pyridin-3-yl)-piperidin-1-yl]-2-hydroxy-propyl}-5-methanesulfonyl-4,5,6,7-tetrahydro-1H-pyrazolo[4,3-c]pyridin-3-yl)-2-trifluoromethyl-benzyl]-acetamide]	250 nM
CS(=O)(=O)c1ccc(C(=O)NCc2cc(-c3nn(CC(O)CN4CCC(N5CCCC5=O)CC4)c4c3CN(S(C)(=O)=O)CC4)ccc2C(F)(F)F)s1 (centres unmarked) [Example 119, 5-Methanesulfonyl-thiophene-2-carboxylic acid 5-(1-{2-hydroxy-3-[4-(2-oxo-pyrrolidin-1-yl)-piperidin-1-yl]-propyl}-5-methanesulfonyl-4,5,6,7-tetrahydro-1H-pyrazolo[4,3-c]pyridin-3-yl)-2-trifluoromethyl-benzylamide]	140 nM
CC(C)CC(=O)NCc1cc(-c2nn(CC(O)CN3CCC(O)(c4ccc(Br)cc4)CC3)c3c2CN(S(C)(=O)=O)CC3)ccc1C(F)(F)F (centres unmarked) [Example 287, N-[5-(1-{3-[4-(4-Bromo-phenyl)-4-hydroxy-piperidin-1-yl]-2-hydroxy-propyl}-5-methanesulfonyl-4,5,6,7-tetrahydro-1H-pyrazolo[4,3-c]pyridin-3-yl)-2-trifluoromethyl-benzyl]-3-methyl-butyramide]	60 nM
CC(C)=CC(=O)NCc1cc(-c2nn(CC(O)CN3CCC(c4cccc(O)c4)CC3)c3c2CN(S(C)(=O)=O)CC3)ccc1C(F)(F)F (centres unmarked) [Example 275, 3-Methyl-but-2-enoic acid 5-(1-{2-hydroxy-3-[4-(3-hydroxy-phenyl)-piperidin-1-yl]-propyl}-5-methanesulfonyl-4,5,6,7-tetrahydro-1H-pyrazolo[4,3-c]pyridin-3-yl)-2-trifluoromethyl-benzylamide]	10 nM
CS(=O)(=O)N1CCc2c(c(-c3ccc(C(F)(F)F)c(CNC(=O)CC4CCCC4)c3)nn2CCCN2CCC(N3CCCC3=O)CC2)C1 [Example 108, 2-Cyclopentyl-N-[5-(5-methanesulfonyl-1-{3-[4-(2-oxo-pyrrolidin-1-yl)-piperidin-1-yl]-propyl}-4,5,6,7-tetrahydro-1H-pyrazolo[4,3-c]pyridin-3-yl)-2-trifluoromethyl-benzyl]-acetamide]	80 nM
CS(=O)(=O)N1CCc2c(c(-c3ccc(Cl)c(NC(=O)c4ccc(C#N)cc4)c3)nn2CCCN2CCN(c3cccc(Cl)c3)CC2)C1 [Example 201, N-[2-Chloro-5-(1-{3-[4-(3-chloro-phenyl)-piperazin-1-yl]-propyl}-5-methanesulfonyl-4,5,6,7-tetrahydro-1H-pyrazolo[4,3-c]pyridin-3-yl)-phenyl]-4-cyano-benzamide]	580 nM
CS(=O)(=O)N1CCc2c(c(-c3ccc(C(F)(F)F)c(CNC(=O)CC4CCCCC4)c3)nn2CCCN2CCC(N3CCCC3=O)CC2)C1 [Example 111, 2-Cyclohexyl-N-[5-(5-methanesulfonyl-1-{3-[4-(2-oxo-pyrrolidin-1-yl)-piperidin-1-yl]-propyl}-4,5,6,7-tetrahydro-1H-pyrazolo[4,3-c]pyridin-3-yl)-2-trifluoromethyl-benzyl]-acetamide]	100 nM
CS(=O)(=O)c1csc(C(=O)NCc2cc(-c3nn(CC(O)CN4CCC(N5CCCC5=O)CC4)c4c3CN(S(C)(=O)=O)CC4)ccc2C(F)(F)F)c1Cl (centres unmarked) [Example 217, 3-Chloro-4-methanesulfonyl-thiophene-2-carboxylic acid 5-(1-{2-hydroxy-3-[4-(2-oxo-pyrrolidin-1-yl)-piperidin-1-yl]-propyl}-5-methanesulfonyl-4,5,6,7-tetrahydro-1H-pyrazolo[4,3-c]pyridin-3-yl)-2-trifluoromethyl-benzylamide]	600 nM
CS(=O)(=O)N1CCc2c(c(-c3ccc(C(F)(F)F)c(CNCCN4CCCCC4)c3)nn2CC(O)CN2CCC(N3CCCC3=O)CC2)C1 (centres unmarked) [Example 179, 1-{1-[2-Hydroxy-3-(5-methanesulfonyl-3-{3-[(2-piperidin-1-yl-ethylamino)-methyl]-4-trifluoromethyl-phenyl}-4,5,6,7-tetrahydro-pyrazolo[4,3-c]pyridin-1-yl)-propyl]-piperidin-4-yl}-pyrrolidin-2-one]	6250 nM
CCCC(=O)NCc1cc(-c2nn(CCCN3CCC(N4CCCC4=O)CC3)c3c2CN(S(C)(=O)=O)CC3)ccc1C(F)(F)F [Example 110, N-[5-(5-Methanesulfonyl-1-{3-[4-(2-oxo-pyrrolidin-1-yl)-piperidin-1-yl]-propyl}-4,5,6,7-tetrahydro-1H-pyrazolo[4,3-c]pyridin-3-yl)-2-trifluoromethyl-benzyl]-butyramide]	90 nM
Cc1ccc(NCc2cc(-c3nn(CCCN4CCC(N5CCCC5=O)CC4)c4c3CN(S(C)(=O)=O)CC4)ccc2Cl)cc1 [Example 208, 1-[1-(3-{3-[4-Chloro-3-(p-tolylamino-methyl)-phenyl]-5-methanesulfonyl-4,5,6,7-tetrahydro-pyrazolo[4,3-c]pyridin-1-yl}-propyl)-piperidin-4-yl]-pyrrolidin-2-one]	280 nM
CN1CCN(CC(=O)NCc2cc(-c3nn(CCCN4CCC(N5CCCC5=O)CC4)c4c3CN(S(C)(=O)=O)CC4)ccc2C(F)(F)F)CC1 [Example 180, N-[5-(5-Methanesulfonyl-1-{3-[4-(2-oxo-pyrrolidin-1-yl)-piperidin-1-yl]-propyl}-4,5,6,7-tetrahydro-1H-pyrazolo[4,3-c]pyridin-3-yl)-2-trifluoromethyl-benzyl]-2-(4-methyl-piperazin-1-yl)-acetamide]	3730 nM
CN(C)c1ccc2c(n1)n(C1CCN(CC(O)Cn3nc(-c4ccc(C(F)(F)F)c(CN)c4)c4c3CCN(S(C)(=O)=O)C4)CC1)c(=O)n2C (centres unmarked) [Example 216, 3-(1-{3-[3-(3-Aminomethyl-4-trifluoromethyl-phenyl)-5-methanesulfonyl-4,5,6,7-tetrahydro-pyrazolo[4,3-c]pyridin-1-yl]-2-hydroxy-propyl}-piperidin-4-yl)-5-dimethylamino-1-methyl-1,3-dihydro-imidazo[4,5-b]pyridin-2-one]	600 nM
CC(C)=CC(=O)NCc1cc(-c2nn(CC(O)CN3CCC(O)(c4ccccn4)CC3)c3c2CN(S(C)(=O)=O)CC3)ccc1C(F)(F)F (centres unmarked) [Example 266, 3-Methyl-but-2-enoic acid 5-{1-[2-hydroxy-3-(4′-hydroxy-3′,4′,5′,6′-tetrahydro-2′H-[2,4′]bipyridinyl-1′-yl)-propyl]-5-methanesulfonyl-4,5,6,7-tetrahydro-1H-pyrazolo[4,3-c]pyridin-3-yl}-2-trifluoromethyl-benzylamide]	10 nM
CC(C)=CC(=O)NCc1cc(-c2nn(CC(O)CN3CCC(c4nc(=O)[nH][nH]4)CC3)c3c2CN(S(C)(=O)=O)CC3)ccc1C(F)(F)F (centres unmarked) [Example 270, 3-Methyl-but-2-enoic acid 5-(1-{2-hydroxy-3-[4-(5-oxo-2,5-dihydro-1H-[1,2,4]triazol-3-yl)-piperidin-1-yl]-propyl}-5-methanesulfonyl-4,5,6,7-tetrahydro-1H-pyrazolo[4,3-c]pyridin-3-yl)-2-trifluoromethyl-benzylamide]	10 nM
CS(=O)(=O)N1CCc2c(c(-c3ccc(C(F)(F)F)c(CNC(=O)c4ccc5[nH]c(=O)[nH]c5c4)c3)nn2CC(O)CN2CCC(N3CCCC3=O)CC2)C1 (centres unmarked) [Example 120, 2-Oxo-2,3-dihydro-1H-benzoimidazole-5-carboxylic acid 5-(1-{2-hydroxy-3-[4-(2-oxo-pyrrolidin-1-yl)-piperidin-1-yl]-propyl}-5-methanesulfonyl-4,5,6,7-tetrahydro-1H-pyrazolo[4,3-c]pyridin-3-yl)-2-trifluoromethyl-benzylamide]	140 nM
CS(=O)(=O)N1CCc2c(c(-c3ccc(C(F)(F)F)c(CNCc4ccc(F)cc4)c3)nn2CCCN2CCC(C3CCCCC3)CC2)C1 [Example 296, (5-{1-[3-(4-Cyclohexyl-piperidin-1-yl)-propyl]-5-methanesulfonyl-4,5,6,7-tetrahydro-1H-pyrazolo[4,3-c]pyridin-3-yl}-2-trifluoromethyl-benzyl)-(4-fluoro-benzyl)-amine]	20 nM
CN1CCOc2cc(C(=O)NCc3cc(-c4nn(CC(O)CN5CCC(N6CCCC6=O)CC5)c5c4CN(S(C)(=O)=O)CC5)ccc3C(F)(F)F)ccc21 (centres unmarked) [Example 122, 4-Methyl-3,4-dihydro-2H-benzo[1,4]oxazine-7-carboxylic acid 5-(1-{2-hydroxy-3-[4-(2-oxo-pyrrolidin-1-yl)-piperidin-1-yl]-propyl}-5-methanesulfonyl-4,5,6,7-tetrahydro-1H-pyrazolo[4,3-c]pyridin-3-yl)-2-trifluoromethyl-benzylamide]	170 nM
